# Results published in PubChem BioAssay (NCI).
# Several values for one entry are separate records, joined by “and”; a condition that tells them apart may be missing. Equal values may be shown once.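 Assay format: 96-well plates, 48-hour exposure. GI50 marks 50% less growth. TGI marks complete inhibition of growth.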
# How the values were obtained:
# Test in all cases: NCI tumour cell line growth inhibition, 48 h
# [1] = system: HCT-116 colon
# [2] = system: MALME-3M melanoma
# [3] = system: CAKI-1 renal
# [4] = system: NCI/ADR-RES ovarian
# [5] = system: UACC-62 melanoma
# [6] = system: A549 NSCLC
# [7] = system: BT-549 breast
# [8] = system: NCI-H522 lung
# [9] = system: DU-145 prostate
# [10] = system: EKVX NSCLC
SMILES,GI50 [1] [µM],TGI [1],GI50 [2] [µM],TGI [2],GI50 [3] [µM],TGI [3],GI50 [4] [µM],TGI [4] [µM],GI50 [5] [µM],TGI [5],GI50 [6] [µM],TGI [6],GI50 [7] [µM],TGI [7] [µM],GI50 [8] [µM],TGI [8],GI50 [9] [µM],TGI [9] [µM],GI50 [10] [µM],TGI [10]
O=C1C(=O)c2ccccc2C(O)=C1CCCc1ccc(C2CCCCC2)cc1,2.01,14.3 µM,3.55,51 µM,2.02,6.51 µM,5.66,76.5,0.816,19.4 µM,3.93,> 100 µM,3.19,39.3,7.69,> 100 µM,5.17,36.5,3.22,20.9 µM
O=C(c1ccccc1)c1c(C(F)(F)F)n([O-])c2cc(C(F)(F)F)ccc2[n+]1=O,0.951,2.36 µM,1.6,3.33 µM,0.491,0.956 µM,2.01,5.12,1.73,3.32 µM,1.72,3.48 µM,0.91,2.27,1.23,2.72 µM,1.22,2.47,1.73,3.42 µM
COc1cc(OC)c(OC)cc1/C=C/c1cnnc2ccccc12,–,> 10 µM,–,> 10 µM,–,> 10 µM,–,> 10,–,> 10 µM,–,> 10 µM,–,> 10,–,> 10 µM,–,> 10,–,> 10 µM
O=c1oc2cc(OC/C(=N/O)c3ccc(F)cc3)ccc2c2ccccc12,15.8,29.2 µM,19.6,42.8 µM,13.1,33.4 µM,18,36.2,17.6,33 µM,18.2,45.7 µM,21.7,42.3,17.5,37 µM,18.5,34.7,20.9,42.5 µM
N#C/C(=N\Nc1ccccc1)C(=O)Nc1cc(-c2ccccc2)nn1-c1ccccc1,2.14,> 100 µM,2.84,> 100 µM,2.88,> 100 µM,2.83,30.2,1.65,> 100 µM,2.95,> 100 µM,2.2,6.47,2.06,12.6 µM,4.08,> 100,2.93,> 100 µM
Clc1ccc2nc(CI)c(CI)nc2c1,2.53,–,1.75,3.83 µM,9.56,24.9 µM,6.8,> 57.7,4.73,17.2 µM,17.8,38.7 µM,2.11,5.58,–,–,10.1,23.5,13.6,40.9 µM
CCCCCCCC/C=C1\CCC(CN2CCOCC2)C1=O (centres undefined),–,13.6 µM,–,24.7 µM,–,23.8 µM,–,14.4,–,12.6 µM,–,24.7 µM,–,22.7,–,6.79 µM,–,17.9,–,32.9 µM
Cc1[nH]c(N)nc(=S)c1CCC(=O)O,–,> 100 µM,–,> 100 µM,–,> 100 µM,–,> 100,–,> 100 µM,–,> 100 µM,–,> 100,–,> 100 µM,–,> 100,–,> 100 µM
O=C(/C=C1\C(=O)N(Cc2ccccc2)c2ccccc21)c1ccc(OCCN2CCCCC2)cc1,1.3,2.67 µM,1.71,3.39 µM,1.78,4.02 µM,3.14,11.7,1.83,3.62 µM,8.42,21.6 µM,2.07,4.05,1.71,3.21 µM,2.26,5.05,2.36,7.48 µM
CC(=O)NC(CSC1=C2NC(=O)\C=C/C=C/C=C\C(C)C(O)CC(=O)/C(C)=C\CC(O)/C=C/C(C)C(O)C(C)C=C(C)C(=O)c3c(O)c(C)cc(c3C1=O)C2=O)C(=O)O (centres undefined),–,> 100 µM,–,> 100 µM,–,> 100 µM,–,> 100,–,> 100 µM,–,> 100 µM,–,> 100,–,71.8 µM,–,> 100,–,> 100 µM
O=C(c1ccco1)c1c(C(F)(F)F)n([O-])c2cc(C(F)(F)F)ccc2[n+]1=O,0.23,1.31 µM,1.49,3.43 µM,1.51,2.97 µM,0.801,4.33,1.44,2.89 µM,0.445,1.02 µM,0.486,1.09,0.54,1.17 µM,0.549,1.21,0.859,2.36 µM
CC(=O)O[C@H]1C(=O)[C@@]2(C)[C@H]([C@H](OC(=O)c3ccccc3)[C@]3(O)C[C@H](OC(=O)[C@H](OC(=O)OC[C@H]4COC(C)(C)O4)[C@@H](NC(=O)c4ccccc4)c4ccccc4)C(C)=C1C3(C)C)[C@]1(OC(C)=O)CO[C@@H]1C[C@@H]2O,0.00596,> 33.3 µM,0.227,> 33.3 µM,0.0885,> 33.3 µM,> 33.3,> 33.3,0.046,> 33.3 µM,0.0295,> 33.3 µM,0.0576,> 33.3,0.0324,> 33.3 µM,0.029,–,0.113,> 33.3 µM
Cc1ccc2c(c1)C(=O)c1c-2c(OCCCN(C)C)nc2ccccc12,0.718,2.12 µM,1.54,3.29 µM,4.1,18.2 µM,1.24,6.53,2.08,4.34 µM,1.46,3.19 µM,6.02,20.2,1.35,3.72 µM,2.81,13.9,2.42,13.5 µM
CC(C)=CC(=O)N[C@H]1CC[C@]2(C)C3CC[C@]4(C)C(C(C)N(C)C)=CCC4C3CCC2[C@H]1O (some centres undefined),1.77,4.21 µM,1.89,4.23 µM,5.63,14.7 µM,10.3,25.5,1.95,3.77 µM,5.92,22.9 µM,5.99,20.8,5.61,20.7 µM,8.68,21.4,6.38,23.2 µM
CN(C)CCCC1(c2ccc(F)cc2)OCc2cc(-c3cc4ccccc4s3)ccc21 (centres undefined),1.67,3.22 µM,1.54,2.98 µM,1.29,2.59 µM,1.74,3.25,1.79,3.24 µM,1.73,3.19 µM,2.03,3.89,1.7,3.28 µM,1.79,3.24,1.66,3.07 µM
CO[C@H]1C[C@](C)(O)Cc2cc3c(c(O)c21)C(=O)c1c(O)cc2c(c1C3=O)O[C@@H]1O[C@@]2(C)[C@H](O)[C@@H](N(C)C)[C@@H]1O,1.13,2.51 µM and 3.03 µM,–,3.44 µM and 13.3 µM,0.114,2.1 µM and 1.59 µM,–,27.8,–,2.98 µM and 2.83 µM,0.139,1.61 µM and 3.02 µM,–,7.3,1.42,3.67 µM and 8.17 µM,–,7.14,2.4,6.5 µM and 13 µM
COc1ccc(/C(C#N)=C/c2cc(OC)c(OC)c(OC)c2)cc1,22.9,> 100 µM,7.68,56.7 µM,20.1,> 100 µM,13.2,65.1,14.1,> 100 µM,23.6,> 100 µM,21.1,70,15.7,56.3 µM,40.1,> 100,–,–
COC1=CC(c2ccc[nH]2)=N/C1=C\c1[nH]c(C)c(CC(=O)OCc2ccccc2)c1C,0.219,1.05 µM,0.578,2.1 µM,0.307,2.27 µM,0.444,1.97,–,–,0.361,6.05 µM,0.432,3.08,0.273,1.86 µM,0.324,10.9,0.351,2.06 µM
C=C1C(=O)O[C@H]2[C@H]1CC/C(Cn1cc(-c3ccc(F)cc3)nn1)=C\CC[C@@]1(C)O[C@@H]21,0.295,1.21 µM,1.4,2.97 µM,1.03,2.23 µM,3.05,14,1.26,2.65 µM,3.37,12.9 µM,0.838,2.13,–,–,0.69,1.99,1.49,2.97 µM
Nc1ccc(COC(O)CN2CCCCC2)cc1[N+](=O)[O-] (centres undefined),–,> 100 µM,–,> 100 µM,–,> 100 µM,–,> 100,–,> 100 µM,–,> 100 µM,–,> 100,–,> 100 µM,–,> 100,–,–
